Test results from US11331268B2, “Taste masking product” (The University of Western Australia, priority 2016, dated 2022).
Counter-ions that a name gives are not always drawn. Like-named read-outs stand apart in the source and are kept apart here.

Key:
[1] = test system: Sprague Dawley rats; test: Rat Brief-Access Taste Aversion (BATA) model; assay type: in vivo
Protocol: The rat ‘Brief-Access Taste Aversion’ (BATA) model was used to assess the taste of the midazolam chocolate tablet formulation relative to control samples. Ten male Sprague Dawley rats (average weight […]) previously trained for the experiments were used and two independent tasting evaluations were conducted over 2 days.
Prior to the experiments, the rats were water-deprived for 22 hours but had access to food ad libitum. Each rat was placed into the Lickometer Davis Rig MS-160 (DiLog Instruments, Tallahassee, Fla., USA) for a 40-minute session where it would be presented with 16 sipper tubes mounted on a moving rack controlled by the Davis Collect Data software. The taste samples were each presented to the rat for 8 seconds, in a random order specified by the computer program. Over the 40-minute session, a sample would have been presented to the rat four times, with a 2-second water rinse given between samples. As the rats licked on the sipper, the number of licks was recorded electronically and transmitted to a database on a computer.
The 5 mg midazolam HCl chocolate tablets were assessed against control samples, which included deionized water, vehicle (water adjusted to pH 5 with HCl), 1 mg/mL solution of midazolam in the vehicle, a 2.5 mg/mL oral midazolam syrup manufactured by AUSPMAN, and chocolate placebo tablets. Simulating the advice to patients to chew the chocolate tablet and then swallow, the placebo and midazolam-loaded chocolate tablets were prepared for the taste evaluation by grinding each chocolate tablet in 2 mL of water, which mimics the volume of saliva, using a mortar and pestle. The resultant liquid preparations were then presented to the rats. […]
Aversion to the taste of a sample was indicated by a significant reduction in the number of licks when the sample was presented to the rats. […] Data was analysed using the RStudio software (https://www.rstudio.com) and applying the non-parametric Kruskal Wallis test with post-hoc Tukey's test for paired comparisons.

[2] = cited from earlier work
[3] = cited from earlier work; remark: listed apart in the source

Question: For `Cc1ncc2n1-c1ccc(Cl)cc1C(c1ccccc1F)=NC2` [midazolam HCl, midazolam hydrochloride], which IC50 ([1]; Rattus norvegicus, midazolam HCl standard solutions in vehicle (water pH 5), n=2, read-out: IC50 (dose-response of number of licks)) is on record?
Answer: 300 ± 290 µg/mL

Question: What about the “detection threshold for the bitter taste” value ([1]; rodent model) of the same compound?
Answer: about 0.03 mg/ml

Question: And the “concentration receiving comparable numbers of licks to blank vehicle” value ([1]; standard solutions in vehicle)?
Answer: up to 0.03 mg/mL

Question: Which “solubility in aqueous media” value [2] does the source give for `COc1cccc(C2(O)CCCCC2CN(C)C)c1` (stereo not drawn) [tramadol HCl, tramadol hydrochloride] here?
Answer: ≤ 2000 µg/mL

Question: With `Cc1ncc2n1-c1ccc(Cl)cc1C(c1ccccc1F)=NC2` [Midazolam, midazolam] as the compound, how does the solubility in water ([3]; low pH) read?
Answer: > 2500 µg/mL

Question: And the solubility in water ([3]; pH>5)?
Answer: less than 0.1 mg/ml
